The term EC50 denotes the midpoint of the concentration-response curve.

For test [1], the system named is Human fibrosarcoma cells (HT-1080 cells). In words: In vitro inhibitory action against ferroptosis (Erastin-induced cell death, Cell Counting Kit-8). Conditions: Erastin 3 μmol/L, 24 hours. It counts as cell-based.
Test [2] in a line: In vitro radical scavenging action (DPPH method). To be noted: 30 minutes at room temperature, maximum concentration 100 μmol/L. As to the method: Radical scavenging action was evaluated using the DPPH method in the compound of Comparative Example 1, which is a tetrahydroquinoxaline derivative, and in the tetrahydroquinoline derivative (I) or a pharmaceutically acceptable salt thereof. The DPPH method was performed using an antioxidant capacity measurement kit (Dojindo Laboratories).
A test compound was dissolved in DMSO, and the resulting solution was then mixed with an assay buffer and a DPPH solution, which are included in the kit, to a total volume of 200 μL to obtain a final concentration of 10% DMSO, and the reaction was allowed to proceed. Wells added with 100 μmol/L ferrostatin-1, a radical scavenger, were grouped as “control,” and wells added with not test compound were grouped as “background.” The test compound was serially diluted 3-fold starting from a maximum concentration of 100 μmol/L, and the diluted test compound (1.2, 3.7, 11.1, 33.3, or 100 μmol/L) was added and allowed to react at room temperature. Thirty minutes after the reaction, the absorbance at 517 nm was measured, and the average absorbance value was calculated (N=2). The radical scavenging action of the test compound (hereinafter referred to as radical scavenging rate, %) was calculated based on the equation 2 below. The EC50 value of the test compound was calculated from the radical scavenging rate. Radical scavenging rate (%)=[1−{(Average absorbance value at 517 nm measured when a test compound is added)−(Average absorbance value at 517 nm measured in the background)}/{(Average absorbance value at 517 nm measured in the control)−(Average absorbance value at 517 nm measured in the background)}]×100 Equation 2
A note “no detection of radical scavenging action (N.D.),” is given to compounds with a EC50 of >100 μmol/L.
For orientation: Loss of DPPH colour is used to gauge radical scavenging.

[3] abbreviates: evaluation concentration 30 μmol/L.
Where [4] appears, read: evaluation concentration 50 μmol/L.
Where [5] appears, read: evaluation concentration 10 μmol/L.

Counter-ions that a name gives are not always drawn. Some results are limits rather than exact numbers.

With `O=C(Cc1ccc2c(c1)CCC(c1ccccc1)N2)NC1COC1` (centres unmarked) [Example 148, N-(oxetan-3-yl)-2-(2-phenyl-1,2,3,4-tetrahydroquinolin-6-yl)acetamide], the “Ferroptosis inhibition rate (%)” value in test [1] (setting [3]) is given as 86.55%. The EC50 in test [2] is above 100 µM.

With `O=C(Cc1ccc2c(c1)CCC(c1ccccc1)N2)N1CC(O)C1` (centres unmarked) [Example 62, 1-(3-hydroxyazetidin-1-yl)-2-(2-phenyl-1,2,3,4-tetrahydroquinolin-6-yl)ethan-1-one], the “Ferroptosis inhibition rate (%)” value in test [1] (setting [3]) is given as 103.2%. In test [2], this compound had an EC50 above 100 µM.

`NS(=O)(=O)c1ccc(C2CCc3ccc(F)cc3N2)cc1` (centres unmarked) [Example 118, 4-(7-fluoro-1,2,3,4-tetrahydroquinolin-2-yl)benzenesulfonamide]: in test [1] (setting [3]), the “Ferroptosis inhibition rate (%)” value is 95.28%. The same compound registered an EC50 in test [2] above 100 µM.

`Cc1cccc2c1CCC(c1ccc(S(N)(=O)=O)cc1)N2` (centres unmarked) [Example 112, 4-(5-methyl-1,2,3,4-tetrahydroquinolin-2-yl)benzenesulfonamide]: the “Ferroptosis inhibition rate (%)” value in test [1] (setting [3]) worked out at 105.5%. The compound also displayed an EC50 in test [2] above 100 µM.

Turning to `O=C1CN(C(=O)Cc2ccc3c(c2)CCC(c2ccccc2)N3)CCN1` (centres unmarked) [Example 157], the “Ferroptosis inhibition rate (%)” value in test [1] (setting [3]) is listed as 69.89%. In addition, the EC50 in test [2] was above 100 µM.

`FC(F)(F)c1ccc(C2CCc3ccccc3N2)cc1` (centres unmarked) [Example 29, 2-(4-(trifluoromethyl)phenyl)-1,2,3,4-tetrahydroquinoline]: the “Ferroptosis inhibition rate (%)” value in test [1] (setting [4]) is listed as 95.38%. The compound also gave an EC50 in test [2] above 100 µM.

With `Fc1cc2c(cc1F)NC(c1ccccc1)CC2` (centres unmarked) [Example 85, 6,7-difluoro-2-phenyl-1,2,3,4-tetrahydroquinoline], the “Ferroptosis inhibition rate (%)” value in test [1] (setting [4]) is listed as 94.94%. This compound also gave an EC50 in test [2] above 100 µM.

Take `Fc1ccc(C2CCc3ccccc3N2)cc1` (centres unmarked) [Example 26, 2-(4-fluorophenyl)-1,2,3,4-tetrahydroquinoline]: the “Ferroptosis inhibition rate (%)” value in test [1] (setting [4]) is 107.7%. For the same compound, the EC50 in test [2] is above 100 µM.

For the compound `O=C(Cc1ccc2c(c1)CCC(c1ccccc1)N2)N1CC(F)(F)C1` (centres unmarked) [Example 149, 1-(3,3-difluoroazetidin-1-yl)-2-(2-phenyl-1,2,3,4-tetrahydroquinolin-6-yl)ethan-1-one], the “Ferroptosis inhibition rate (%)” value in test [1] (setting [3]) is on record as 99.36%. This compound also gave an EC50 in test [2] above 100 µM.

As for `CS(=O)(=O)c1ccc(C2CCc3ccccc3N2)cc1` (centres unmarked) [Example 16, 2-(4-(methylsulfonyl)phenyl)-1,2,3,4-tetrahydroquinoline], the “Ferroptosis inhibition rate (%)” value in test [1] (setting [4]) worked out at 90.31%. Moreover, the EC50 in test [2] is above 100 µM.

For `Fc1cccc2c1CCC(c1ccccc1)N2` (centres unmarked) [Example 66, 5-fluoro-2-phenyl-1,2,3,4-tetrahydroquinoline], in test [1] (setting [3]), the “Ferroptosis inhibition rate (%)” value stood at 101.5%. Further, the EC50 in test [2] is above 100 µM.

On to `O=C(Cc1ccc2c(c1)CCC(c1ccccc1)N2)N1CC(F)(F)C1` (centres unmarked) [Example 160, 1-(3,3-difluoroazetidin-1-yl)-2-(2-phenyl-1,2,3,4-tetrahydroquinolin-6-yl)ethan-1-one], for which the “Ferroptosis inhibition rate (%)” value in test [1] (setting [5]) worked out at 99.11%. This compound had an EC50 in test [2] above 100 µM.

`NC(=O)Cc1ccc2c(c1)CCC(c1ccccc1)N2` (centres unmarked) [Example 60, 2-(2-phenyl-1,2,3,4-tetrahydroquinolin-6-yl)acetamide]: the “Ferroptosis inhibition rate (%)” value in test [1] (setting [3]) is reported as 98.74%. For the same compound, in test [2], the EC50 is above 100 µM.

Take `Fc1ccc2c(c1)NC(c1ccccc1)CC2` (centres unmarked) [Example 68, 7-fluoro-2-phenyl-1,2,3,4-tetrahydroquinoline]: the “Ferroptosis inhibition rate (%)” value in test [1] (setting [3]) is 101.9%. Also, the EC50 in test [2] was above 100 µM.

Consider `CN(CCO)C(=O)Cc1ccc2c(c1)CCC(c1ccccc1)N2` (centres unmarked) [Example 150, N-(2-hydroxyethyl)-N-methyl-2-(2-phenyl-1,2,3,4-tetrahydroquino-lin-6-yl)acetamide], for which the “Ferroptosis inhibition rate (%)” value in test [1] (setting [3]) is 106.9%. In test [2], this compound gave an EC50 above 100 µM.

In the case of `NS(=O)(=O)c1ccc(C2CCc3cc(F)ccc3N2)cc1` (centres unmarked) [Example 109, 4-(6-fluoro-1,2,3,4-tetrahydro-quinolin-2-yl)benzenesulfonamide], in test [1] (setting [5]), the “Ferroptosis inhibition rate (%)” value came out at 83.63%. The compound further came in with an EC50 in test [2] above 100 µM.

As to `NS(=O)(=O)c1ccc(C2CCc3ccccc3N2)cc1` (centres unmarked) [Example 34, 4-(1,2,3,4-tetrahydroquinolin-2-yl)benzenesulfonamide], in test [1] (setting [3]), the “Ferroptosis inhibition rate (%)” value is 86.96%. This compound also yielded an EC50 in test [2] above 100 µM.

As for `NC(=O)c1ccc(C2CCc3cc(Cl)ccc3N2)cc1` (centres unmarked) [Example 131, 4-(6-chloro-1,2,3,4-tetrahydroquinolin-2-yl)benzamide], the “Ferroptosis inhibition rate (%)” value in test [1] (setting [3]) is recorded as 102.5%. Moreover, in test [2], the EC50 is above 100 µM.

For `NC(=O)c1ccc(C2CCc3ccccc3N2)cc1` (centres unmarked) [Example 37, 4-(1,2,3,4-tetrahydroquinolin-2-yl)benzamide], the “Ferroptosis inhibition rate (%)” value in test [1] (setting [3]) was determined as 98.69%. In addition, the EC50 in test [2] was above 100 µM.

With `NS(=O)(=O)c1ccc(C2CCc3c(F)cccc3N2)cc1` (centres unmarked) [Example 135, 4-(5-fluoro-1,2,3,4-tetrahydroquinolin-2-yl)benzenesulfonamide], the “Ferroptosis inhibition rate (%)” value in test [1] (setting [3]) was determined as 62.32%. In addition, the EC50 in test [2] is above 100 µM.

Regarding `FC(F)(F)Oc1ccc(C2CCc3ccccc3N2)cc1` (centres unmarked) [Example 31, 2-(4-(trifluoromethoxy)phenyl)-1,2,3,4-tetrahydroquinoline], the “Ferroptosis inhibition rate (%)” value in test [1] (setting [4]) came out at 98.99%. Moreover, the EC50 in test [2] was above 100 µM.

On to `FC(F)(F)Oc1ccc2c(c1)CCC(c1ccccc1)N2` (centres unmarked) [Example 81, 2-phenyl-6-(trifluoromethoxy)-1,2,3,4-tetrahydroquinoline], for which, in test [1] (setting [4]), the “Ferroptosis inhibition rate (%)” value was 103.9%. Besides, in test [2], the EC50 was above 100 µM.

Regarding `CC(C)(C)NC(=O)Cc1ccc2c(c1)CCC(c1ccccc1)N2` (centres unmarked) [Example 61, N-(tert-butyl)-2-(2-phenyl-1,2,3,4-tetrahydroquinolin-6-yl)acetamide], in test [1] (setting [3]), the “Ferroptosis inhibition rate (%)” value came to 103.9%. In test [2], this compound yielded an EC50 above 100 µM.

With `Cc1ccc2c(c1)CCC(c1ccc(C(N)=O)cc1)N2` (centres unmarked) [Example 99, 4-(6-methyl-1,2,3,4-tetrahydroquinolin-2-yl)benzamide], in test [1] (setting [3]), the “Ferroptosis inhibition rate (%)” value is 98.85%. In test [2], this compound yielded an EC50 above 100 µM.

In the case of `Clc1ccc2c(c1)CCC(c1ccccc1)N2` (centres unmarked) [Example 83, 6-chloro-2-phenyl-1,2,3,4-tetrahydroquinoline], the “Ferroptosis inhibition rate (%)” value in test [1] (setting [4]) stood at 103.8%. The EC50 in test [2] was above 100 µM.

For `O=C(Cc1ccc2c(c1)CCC(c1ccccc1)N2)N1CC(O)C1` (centres unmarked) [Example 143, 1-(3-hydroxyazetidin-1-yl)-2-(2-phenyl-1,2,3,4-tetrahydroquinolin-6-yl)ethan-1-one hydrochloride], in test [1] (evaluation concentration 30 μmol/L, hydrochloride), the “Ferroptosis inhibition rate (%)” value worked out at 93.97%. This compound also yielded an EC50 in test [2] above 100 µM.

For `Fc1ccc2c(c1)CCC(c1ccccc1)N2` (centres unmarked) [Example 82, 6-fluoro-2-phenyl-1,2,3,4-tetrahydroquinoline], in test [1] (setting [3]), the “Ferroptosis inhibition rate (%)” value is given as 112.6%. In test [2], this compound displayed an EC50 above 100 µM.

Take `NS(=O)(=O)c1ccc(C2CCc3c(Cl)cccc3N2)cc1` (centres unmarked) [Example 134, 4-(5-chloro-1,2,3,4-tetrahydroquinolin-2-yl)benzenesulfonamide]: the “Ferroptosis inhibition rate (%)” value in test [1] (setting [3]) came out at 77.77%. This compound also gave an EC50 in test [2] above 100 µM.

Turning to `NC(=O)c1ccc(C2CCc3c(F)cccc3N2)cc1` (centres unmarked) [Example 137, 4-(5-fluoro-1,2,3,4-tetrahydroquinolin-2-yl)benzamide], the “Ferroptosis inhibition rate (%)” value in test [1] (setting [3]) was 93.06%. This compound also returned an EC50 in test [2] above 100 µM.

Take `COC1CN(C(=O)Cc2ccc3c(c2)CCC(c2ccccc2)N3)C1` (centres unmarked) [Example 147, 1-(3-methoxyazetidin-1-yl)-2-(2-phenyl-1,2,3,4-tetrahydroquinolin-6-yl)ethan-1-one]: in test [1] (setting [3]), the “Ferroptosis inhibition rate (%)” value is given as 93.00%. Besides, the EC50 in test [2] was above 100 µM.

As to `NS(=O)(=O)c1ccc(C2CCc3cc(Cl)ccc3N2)cc1` (centres unmarked) [Example 115, 4-(6-chloro-1,2,3,4-tetrahydroquinolin-2-yl)benzenesulfonamide], in test [1] (setting [3]), the “Ferroptosis inhibition rate (%)” value worked out at 105.8%. The compound also showed a concentration giving a half-maximal response (EC50) in test [2] above 100 µM.

Take `NC(=O)c1ccc(C2CCc3cc(Cl)ccc3N2)cc1` (centres unmarked) [Example 121, 4-(6-chloro-1,2,3,4-tetrahydroquinolin-2-yl)benzamide]: the “Ferroptosis inhibition rate (%)” value in test [1] (setting [5]) is listed as 92.10%. In addition, the EC50 in test [2] was above 100 µM.

In the case of `c1ccc([C@H]2CCc3ccccc3N2)cc1` [Example 2, (R)-2-phenyl-1,2,3,4-tetrahydroquinoline], the “Ferroptosis inhibition rate (%)” value in test [1] (setting [3]) was determined as 117.4%. In test [2], this compound had an EC50 above 100 µM.

Turning to `CC1(C)CN(C(=O)Cc2ccc3c(c2)CCC(c2ccccc2)N3)C1` (centres unmarked) [Example 146, 1-(3,3-dimethylazetidin-1-yl)-2-(2-phenyl-1,2,3,4-tetrahy-dro-quin-olin-6-yl)ethan-1-one], the “Ferroptosis inhibition rate (%)” value in test [1] (setting [3]) came out at 112.8%. Further, the EC50 in test [2] is above 100 µM.

Source of the values: patent US12570639B2, “Tetrahydroquinoline derivative and medicinal use thereof” (Toray Industries, Inc., priority 2020, dated 2026).
